Measurements as given in article PMC7269146, “Jingzhaotoxin-X, a gating modifier of Kv4.2 and Kv4.3 potassium channels purified from the venom of the Chinese tarantula Chilobrachys jingzhao” (The Journal of Venomous Animals and Toxins Including …, 2020).
Where a SMILES comes first, the peptide text is derived from it. Bridges are numbered along the chain shown (N, C = ends).

Experiments:
Kv4.2 = target: T1, Kv4.2 (Rattus norvegicus, UniProt Q63881); assay: kinetic constants of JZTX-X at Kv4.2 channel (wash-in / wash-out); type: cell-based; conditions: test conc. 0.2 μM, n = 6
T1 construct: expressed in transfected cells; host or cells: HEK293t
T1 sequence (Q63881 1-630): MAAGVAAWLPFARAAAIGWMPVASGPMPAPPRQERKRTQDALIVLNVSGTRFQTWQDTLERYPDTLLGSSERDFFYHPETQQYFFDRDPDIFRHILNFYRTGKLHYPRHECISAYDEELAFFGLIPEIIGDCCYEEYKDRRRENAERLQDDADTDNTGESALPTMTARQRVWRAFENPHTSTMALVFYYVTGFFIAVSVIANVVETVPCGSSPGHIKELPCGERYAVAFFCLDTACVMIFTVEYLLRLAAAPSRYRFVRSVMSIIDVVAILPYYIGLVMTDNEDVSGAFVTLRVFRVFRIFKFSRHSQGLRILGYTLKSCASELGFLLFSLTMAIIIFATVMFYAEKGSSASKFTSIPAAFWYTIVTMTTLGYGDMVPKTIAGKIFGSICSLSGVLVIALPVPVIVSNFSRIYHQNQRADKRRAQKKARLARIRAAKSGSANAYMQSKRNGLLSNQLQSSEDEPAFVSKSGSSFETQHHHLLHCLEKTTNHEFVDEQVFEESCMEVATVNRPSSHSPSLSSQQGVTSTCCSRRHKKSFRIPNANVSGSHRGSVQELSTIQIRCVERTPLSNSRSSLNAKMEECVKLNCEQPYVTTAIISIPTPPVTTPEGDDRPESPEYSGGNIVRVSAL
From the text: Rat cDNA genes encoding Kv4.2 (Accession: NM_031730.2) and Kv4.3 (Accession: AB003587.1) were subcloned to vector pcDNA3.1. In addition, human cDNA genes encoding Nav1.7 (Accession: DQ857292.1) and Nav1.5 (Accession: AB158469.2) were subcloned to vectors pcDNA3.1-mod and pcDNA3.1, separately. Then, Kv4.2, Kv4.3, Nav1.5 and Nav1.7 constructs were transiently transfected into the human embryonic kidney 293t (HEK293t) cells using lipofectamine 2000 (Invitrogen, USA) in accordance with manufacturer protocols. Thereafter, HEK293 cells were inoculated within Dulbecco’s modified Eagle’s medium (DMEM) containing 10% fetal bovine serum (FBS) at 5% CO2 and 37°C. The Kv4.3 channel and the Kv4.2 counterpart were then transfected in the absence of β subunit. Subsequently, cells were incubated with a DNA-lipofectamine mixture (one reporter plasmid for green fluorescence protein and channel constructs) for 4-6 h, and were washed with the fresh medium.
An EPC-10 patch-clamp amplifier (HEKA, Germany) was employed to record the potassium currents at the configuration of whole-cell patch-clamp under an ambient temperature of 22-25°C. The resistance was 2.0-3.0 MΩ when the recording pipette contained a full volume of internal solution (supplemented with 140 mM KCl, 10 mM HEPES, 2.5 mM MgCl2, 5 mM ATP and 11 mM EGTA). KOH was utilized to adjust the pH to 7.2, while sucrose was employed to adjust the osmolarity to 310 mOsm/L. The culture medium was replaced with an external solution containing 150 mM NaCl, 2.5 mM CaCl2, 10 mM HEPES, 2 mM MgCl2, 5 mM KCl, and 10 mM D-glucose. Similarly, sucrose and NaOH were applied to adjust the osmolarity to 330 mOsm/L and pH to 7.4. […] The series resistance was maintained at about 5 MΩ, with 65-70% compensation. Finally, the leakage currents and linear capacitance were subtracted digitally according to the P/4 protocol.
As for kinetic calculations, curves as a function of peak currents vs. time were plotted from the toxin wash-out or wash-in moments. The software Sigmaplot 9.0 (Sigma, USA) was utilized to fit data to the first-order exponential equation. […]

HVA Cav channels = assay: whole-cell voltage-clamp, HVA Cav currents of rat DRG neurons; type: cell-based; conditions: 10 μM, n = 3
[1] = rotarod performance test in mice; type: in vivo, mouse (male C57BL/6); conditions: 40 nmol/kg, n = 8; for time on accelerating rotarod: 1 h following treatment, cutoff 300 s
Experimental: In the present study, male C57BL/6 mice weighing 20-25 g were utilized. This study was performed following the Guide for the Care and Use of Laboratory Animals released by the United States National Institutes of Health (US NIH). Our study protocol was approved by the Animal Experiments Ethics Committee at Central Southern University (No. 2018-2-6). Each operation was performed under isoflurane-induced anesthesia to reduce pain and minimize animal suffering. Lumbar puncture was also conducted for intrathecal injection, as described previously. Next, the effect of JZTX-X on nociception was evaluated by assessing the behaviors during the mechanical hyperalgesia process. The JZTX-X-induced mechanical hyperalgesia was investigated by two experiments via various administration routes, including intrathecal and intraplantar injections. Then, animals were challenged via intrathecal (10 µL) or intraplantar (20 µL) injection of JZTX-X (40 nmol/kg). The control group was given a physiological solution, which contained 0.9% NaCl, […].
A rotarod accelerator treadmill (Med Associates Inc., St. Albans, VT) was utilized for rotarod performance tests, so as to determine […] motor function as previously described. Motor learning was also carried out by rotarod tests for evaluating the mice’s capacity to stay on the accelerating rotating drum. In JZTX-X- and saline- groups, all animals were acclimated for 30 min within the testing room, and placed for 300 s onto the rotarod that accelerated from 4 to 40 rpm. In addition, the latency time for animals falling from the rod was calculated before and after toxin injection, from the beginning of acceleration to falling onto the drum, and the maximum cutoff time was 300 s.

CC(C)C[C@@H]1NC(=O)[C@H](CCCCN)NC(=O)[C@H](Cc2ccc(O)cc2)NC(=O)[C@@H]2CSSC[C@@H]3NC(=O)[C@H](Cc4ccc(O)cc4)NC(=O)[C@H](Cc4ccccc4)NC(=O)CNC(=O)[C@H](C)NC(=O)[C@H](CSSC[C@H](NC(=O)[C@@H](N)CC(C)C)C(=O)N[C@@H](CO)C(=O)N[C@@H](CCCNC(=N)N)C(=O)N[C@@H](CCC(=O)O)C(=O)NCC(=O)N[C@@H](CCC(=O)O)C(=O)N[C@@H](Cc4ccccc4)C(=O)N2)NC(=O)[C@H](CSSC[C@@H](C(=O)N[C@@H](Cc2ccc(O)cc2)C(=O)N[C@@H](CCCNC(=N)N)C(=O)N[C@@H](CC(N)=O)C(=O)O)NC(=O)[C@H](Cc2c[nH]cn2)NC(=O)[C@H](CC(C)C)NC(=O)[C@H](C(C)C)NC(=O)[C@H](Cc2ccccc2)NC(=O)[C@H](C)NC(=O)[C@H](CCCCN)NC3=O)NC(=O)[C@H](CCCCN)NC(=O)[C@H](CCCNC(=N)N)NC1=O [JZTX-X, Jingzhaotoxin-X] (H-LCSREGEFCYKLRKCCAGFYCKAFVLHCYRN-OH; disulfide 2-16, 9-21, 15-28; N-terminus assumed)
kmod, Kv4.2 channel (Kv4.2; inverse of τ of toxin wash-in): 0.089 ± 0.007 s⁻¹ | koff (Kv4.2; inverse of τ of toxin wash-out): 0.008 ± 0.0006 s⁻¹ | Kd (kinetic dissociation constant) (Kv4.2; method text: Kd = koff / kon, read-out: ki, Kv4.2 channel): 95 ± 30 nM | inhibition of HVA Cav current (HVA Cav channels): less than 5% | effect on motor coordination ([1]; intrathecal and intraplantar): made no difference to the motor coordination in mice | time on accelerating rotarod ([1]; intraplantar, vehicle 118.8 ± 9.8 s): 113.4 ± 8.3 s | time on accelerating rotarod ([1]; intrathecal, vehicle 117.9 ± 7.6 s): 117.5 ± 7.8 s
